{
  "source": "patent US20260102340A1",
  "about": "“Therapeutic Formulation” (1000739373 Ontario Ltd., priority 2022, published 2026)",
  "key": {"physchem [1]": {"assay": "physchem", "settings": "organic solvent or mixture"}, "[2]": {"settings": "4.5 months", "text": "A plurality of metered dose inhalers (MDIs) were filled with either the first or second therapeutic formulation. MDIs were stored either upright (Up) or inverted (in). Each MDI comprised a valve and a canister."}, "[3]": {"settings": "HFA 134a"}, "physchem [4]": {"assay": "physchem", "settings": "organic solvent or mixture, Mean Drug Solubility (± standard deviation)"}, "[5]": {"settings": "HFA 134a, Metering Valve 1908, 25° C., Up"}, "[6]": {"settings": "HFA 134a, Metering Valve 1908, 40° C. (75% RH), Down"}, "[7]": {"settings": "HFA 134a, Metering Valve 1908, 40° C. (75% RH), Up"}, "[8]": {"settings": "HFA 134a, Metering Valve 1908, Presspart Plasma Coated 14 ml C128, 5° C., Up"}, "[9]": {"settings": "HFA 134a, Metering valve 1904 (with dip tube 1906), 5° C., Up"}, "[10]": {"settings": "HFA 134a, Metering valve 1904 (with dip tube 1906), 40° C. (75% RH), Down"}, "[11]": {"settings": "HFA 134a, Metering valve 1904 (with dip tube 1906), 40° C. (75% RH), Up"}, "[12]": {"settings": "HFA 152a, Metering Valve 1908, 5° C., Up"}, "[13]": {"settings": "HFA 152a, Metering Valve 1908, 25° C., Up"}, "[14]": {"settings": "HFA 152a, Metering Valve 1908, 40° C. (75% RH), Down"}, "[15]": {"settings": "HFA 152a, Metering Valve 1908, 40° C. (75% RH), Up"}, "[16]": {"settings": "HFA 152a, Metering valve 1904 (with dip tube 1906), 40° C. (75% RH), orientation not given"}, "[17]": {"settings": "0 %(w/w) ethanol, nicotine added 0.169 ± 0.009 %(w/w)"}, "[18]": {"settings": "14.8 %(w/w) ethanol, nicotine added 0.703 %(w/w)"}},
  "note": "“And” between values parts separate entries of the source, which are not always exact repeats. Identical values can stand only once. Like-named read-outs stand apart in the source and are kept apart here.",
  "data": [
    {"smiles": "CN1CCC[C@H]1c1cccnc1", "note": "[Nicotine, L-Nicotine]", "values": [
      {"measurement": "solubility", "setting": "physchem [1]", "result": "≥ 10", "unit": "µg/mL"},
      {"measurement": "Nicotine % of 5° C.", "setting": "[2]; [5]", "result": "98 % of 5 °C"},
      {"measurement": "Nicotine can content", "setting": "[2]; [5]", "result": "23922.695 µg and 23527.533 µg"},
      {"measurement": "Nicotine % of 5° C.", "setting": "[2]; [6]", "result": "98 % of 5 °C"},
      {"measurement": "Nicotine can content", "setting": "[2]; [6]", "result": 23663.281, "unit": "µg"},
      {"measurement": "Nicotine % of 5° C.", "setting": "[2]; [7]", "result": "97 % of 5 °C"},
      {"measurement": "Nicotine can content", "setting": "[2]; [7]", "result": "22809.747 µg and 23785.869 µg"},
      {"measurement": "Nicotine % of 5° C.", "setting": "[2]; [8]", "result": "100 % of 5 °C"},
      {"measurement": "Nicotine can content", "setting": "[2]; [8]", "result": "24166.562 µg and 24126.474 µg"},
      {"measurement": "Nicotine % of 5° C.", "setting": "[2]; [9]", "result": "100 % of 5 °C"},
      {"measurement": "Nicotine can content", "setting": "[2]; [9]", "result": "23891.217 µg and 23628.856 µg"},
      {"measurement": "Nicotine % of 5° C.", "setting": "[2]; [10]", "result": "97 % of 5 °C"},
      {"measurement": "Nicotine can content", "setting": "[2]; [10]", "result": "23102.878 µg and 23079.598 µg"},
      {"measurement": "Nicotine % of 5° C.", "setting": "[2]; [11]", "result": "96 % of 5 °C"},
      {"measurement": "Nicotine can content", "setting": "[2]; [11]", "result": "22360.125 µg and 23044.004 µg"},
      {"measurement": "Nicotine % of 5° C.", "setting": "[2]; [12]", "result": "100 % of 5 °C"},
      {"measurement": "Nicotine can content", "setting": "[2]; [12]", "result": "31626.434 µg and 30855.835 µg"},
      {"measurement": "Nicotine % of 5° C.", "setting": "[2]; [13]", "result": "100 % of 5 °C"},
      {"measurement": "Nicotine can content", "setting": "[2]; [13]", "result": "31592.559 µg and 30786.35 µg"},
      {"measurement": "Nicotine % of 5° C.", "setting": "[2]; [14]", "result": "98 % of 5 °C"},
      {"measurement": "Nicotine can content", "setting": "[2]; [14]", "result": "30939.368 µg and 30153.5 µg"},
      {"measurement": "Nicotine % of 5° C.", "setting": "[2]; [15]", "result": "98 % of 5 °C"},
      {"measurement": "Nicotine can content", "setting": "[2]; [15]", "result": "30982.764 µg and 30318.689 µg"},
      {"measurement": "Nicotine % of 5° C.", "setting": "[2]; [16]", "result": "97 % of 5 °C"},
      {"measurement": "Nicotine can content", "setting": "[2]; [16]", "result": "30395.997 µg and 30048.645 µg"},
      {"measurement": "Effect of addition of ethanol on solubility", "setting": "[3]", "result": "greatly improved"},
      {"measurement": "Detected/Added *100%", "setting": "[3]; [17]", "result": "99 ± 11", "unit": "%"},
      {"measurement": "Nicotine Detected in Solution (by HPLC) % (w/w)", "setting": "[3]; [17]", "result": "0.168 ± 0.026 % (w/w)"},
      {"measurement": "Nicotine Detected in Solution (by HPLC) μg per 50 μl", "setting": "[3]; [17]", "result": "104 ± 15", "unit": "μg per 50 μl"},
      {"measurement": "Detected/Added *100%", "setting": "[3]; [18]", "result": "108 ± 2", "unit": "%"},
      {"measurement": "Nicotine Detected in Solution (by HPLC) % (w/w)", "setting": "[3]; [18]", "result": "0.760 ± 0.013 % (w/w)"},
      {"measurement": "Nicotine Detected in Solution (by HPLC) μg per 50 μl", "setting": "[3]; [18]", "result": "421 ± 10", "unit": "μg per 50 μl"},
      {"measurement": "Solubility in 50:50 mixtures of propellants compared with single propellants", "setting": "50:50 mixtures of propellants", "result": "higher solubility than either propellant alone"},
      {"measurement": "Solubility, equivalent % by mass", "setting": "HFA 152a", "result": 0.56, "unit": "% by mass"},
      {"measurement": "solubility", "setting": "physchem [4]; 50:50 HFA 134a/HFA 152a", "result": "85.8 ± 3.2", "unit": "µg/mL"},
      {"measurement": "solubility", "setting": "physchem [4]; 50:50 HFA 134a/HFO 1234ze", "result": "62.3 ± 4.4", "unit": "µg/mL"},
      {"measurement": "solubility", "setting": "physchem [4]; HFA 134a", "result": "38.5 ± 1.6", "unit": "µg/mL"},
      {"measurement": "solubility", "setting": "physchem [4]; HFA 152a", "result": "50.8 ± 2.9", "unit": "µg/mL"},
      {"measurement": "solubility", "setting": "physchem [4]; HFA 227ea", "result": "19.8 ± 4.9", "unit": "µg/mL"},
      {"measurement": "solubility", "setting": "physchem [4]; HFO 1234ze", "result": "41.5 ± 0.8", "unit": "µg/mL"}
    ]}
  ]
}
